Reference: US20080200473A1, “Imidazo [1,2-a]Pyridine Compounds, Compositions, Uses and Methods Thereto” (Ferrer Internacional, S.A., priority 2004, published 2008)

Tests used:
[1] = tested on: α1-GABAA receptor; assay: Ligand-binding assay, competitive with radiolabeled flumazenil, cerebellum membranes; settings: Affinity for α1-GABAA receptor, rat cerebellum membranes, radiolabeled flumazenil 1 nM; for % Inhibition 10^−5M: 10^-5M test compound; for % Inhibition 10^−7M: 10^-7M test compound
Method: (§1) Ligand-binding assays. Determination of the affinity of test compounds for α1- and α2-GABAA receptor.
(§2) Male Sprague-Dawley rats weighing 200-250 g at the time of experiment were used. After decapitation of the animal, the cerebellum (tissue that mostly contains α1-GABAA receptor) and spinal cord (tissue that mostly contains α2-GABAA receptor) were removed. The membranes were prepared according to the method by J. Lameh et al. (Prog. Neuro-Psychopharmacol. Biol. Psychiatry, 24, 979-991, 2000) and H. Noguchi et al. (Eur. J. Pharm., 434, 21-28, 2002). Once the tissues weighed, they were suspended in 50 mM Tris.HCl (pH 7.4), 1:40 (w/v), or sucrose 0.32 M in the case of spinal cord, homogenized and then centrifuged at 20,000 g for 10 min at 7° C. twice. The resulting pellet was resuspended under the same conditions and centrifuged again. The pellet was finally resuspended on a minimum volume and kept at −80° C. overnight. On the next day, the process was repeated until the final pellet was resuspended at a ratio of 1:10 (w/v) in the case of cerebellum and at a ratio of 1:5 (w/v) in the case of spinal cord.
(§3) Affinity was determined by competitive tests using radiolabeled flumazenil as ligand. The tests were performed according to the methods described by S. Arbilla et al. (Eur. J. Pharmacol., 130, 257-263, 1986); and Y. Wu et al. (Eur. J. Pharmacol., 278, 125-132, 1995) using 96-well microtiter plates. The membranes containing the study receptors, flumazenil (radiolabeling at a final concentration of 1 nM) and ascending concentrations of test compounds (in a total volume of 230 μL in 50 mM [ph 7.4] Tris.HCl buffer) were incubated. Simultaneously, the membranes were only incubated with the radiolabeled flumazenil (total binding, 100%) and in the presence of an elevated concentration of unradiolabeled flumazenil (non-specific binding, % estimation of radiolabeled ligand). The reactions started on adding the radiolabeled ligand followed by incubation for 60 minutes at 4° C. At the end of the incubation period, 200 μL of reaction were transferred to a multiscreen plate (Millipore) and filtered using a vacuum manifold and then washed three times with cold test buffer. The multiscreen plates were equipped with a GF/B filter that retained the membranes containing the receptors and the radiolabeled ligand which has been bound to the receptors. After washing, the plates were left till dry. Once dried, scintillation liquid was added and left under stirring overnight. The next day the plates were counted using a Perkin-Elmer Microbeta scintillation counter.
(§4) For analysis of the results the percentage of specific binding for every concentration of test compound was calculated as follows:
(§5) % specific binding=(X−N/T−N)×100
(§6) where, X: amount of bound ligand for every concentration of compound. T: total binding, maximum amount bound to the radiolabeled ligand. N: non-specific binding, amount of radiolabeled ligand bound in a non-specific way irrespective of the receptor used.
(§7) Every concentrations of compound were tested in triplicate and their mean values were used to determine the experimental values of % specific binding versus the concentration of compound. Affinity data are expressed as % inhibition at 10^-5M and 10^-7M concentrations.

[2] = tested on: mice; assay: In vivo predictive sedation-hypnosis test (inhibition of traveled distance); parameters: species or system mouse; settings: male CD1 mice; single equimolecular intraperitoneal doses; traveled distance over 30 min after dosing (first 5 min discarded) versus control
Method: In vivo determination of predictive sedative-hypnotic action.
The in vivo effects of these compounds were assessed by a predictive sedation-hypnosis test in mice (D. J. Sanger et al., Eur. J. Pharmacol., 313, 35-42, 1996; and G. Griebel et al., Psychopharmacology, 146, 205-213, 1999).
Groups of 5-8 male CD1 mice, weighing 22-26 g at the time of test, were used. The test compounds were administered in single equimolecular intraperitoneal doses, suspended in 0.25% agar with one drop of Tween in a volume of 10 mL/kg. Control animals received the vehicle alone. Using a Smart System (Panlab, S. L., Spain) the traveled distance in cm is recorded for each mouse at 5-min intervals during a period of 30 minutes after dosing. The inhibition percentage of traveled distance of treated animals versus control animals (the first 5 min were discarded) was calculated.

[3] = tested on: α2-GABAA receptor; assay: Ligand-binding assay, competitive with radiolabeled flumazenil, spinal cord membranes; settings: Affinity for α2-GABAA receptor, rat spinal cord membranes, radiolabeled flumazenil 1 nM; for % Inhibition 10^−5M: 10^-5M test compound; for % Inhibition 10^−7M: 10^-7M test compound
Method: as §1, §2, §3, §4, §5, §6, §7

SMILES | % Inhibition 10^−5M [1] [%] | % Inhibition 10^−7M [1] [%] | % Inhibition Motor Activity [2] [%] | % Inhibition 10^−5M [3] [%] | % Inhibition 10^−7M [3] [%]
Cc1ccc(-c2nc3ccc(C)cn3c2CNC(=O)c2ccc3ccccc3n2)cc1 [Example 19, Quinoline-2-carboxylic acid (6-methyl-2-p-tolyl-imidazo[1,2-a]pyridin-3-ylmethyl)-amide] | 95.5 | 0.0 | 47.98 | 47.6 | 0.0
Cc1ccc(-c2nc3ccc(C)cn3c2CNC(=O)c2ncc(F)cc2F)cc1 [Example 20, 3,5-Difluoro-pyridine-2-carboxylic acid (6-methyl-2-p-tolyl-imidazo[1,2-a]pyridin-3-ylmethyl)-amide] | 99.8 | 65.9 | 91.99 | 95.2 | 0.0
COc1ccc2nc(C(=O)NCc3c(-c4ccc(C)cc4)nc4ccc(C)cn34)sc2c1 [Example 21, 6-Methoxy-benzothiazole-2-carboxylic acid (6-methyl-2-p-tolyl-imidazo[1,2-a]pyridin-3-ylmethyl)-amide] | 67.9 | 3.5 | 57.14 | 25.6 | 0.0
Cc1ccc(-c2nc3ccc(C)cn3c2CN(C)C(=O)c2ccc(N(C)C)cc2)cc1 [Example 22, 4-Dimethylamino-N-methyl-N-(6-methyl-2-p-tolyl-imidazo[1,2-a]pyridin-3-ylmethyl)-benzamide] | 84.8 | 62.3 | 89.45 | 9.4 | 0.0
Cc1ccc(-c2nc3ccc(C)cn3c2CN(C)C(=O)C2CC2)cc1 [Example 24, Cyclopropanecarboxylic acid methyl-(6-methyl-2-p-tolyl-imidazo[1,2-a]pyridin-3-ylmethyl)-amide] | 99.8 | 75.2 | 80.71 | 14.4 | 0.0
COc1ccc(C(=O)N(C)Cc2c(-c3ccc(C)cc3)nc3ccc(C)cn23)cc1 [Example 25, 4-Methoxy-N-methyl-N-(6-methyl-2-p-tolyl-imidazo[1,2-a]pyridin-3-ylmethyl)-benzamide] | 91.9 | 26.6 | 67.34 | 0.0 | 0.0
Cc1ccc(-c2nc3ccc(C)cn3c2CN(C)C(=O)c2ccccn2)cc1 [Example 28, Pyridine-2-carboxylic acid methyl-(6-methyl-2-p-tolyl-imidazo[1,2-a]pyridin-3-ylmethyl)-amide] | 99.8 | 73.3 | 55.64 | 93.9 | 14.3
Cc1ccc(-c2nc3ccc(C)cn3c2CN(C)C(=O)c2cccs2)cc1 [Example 29, Thiophene-2-carboxylic acid methyl-(6-methyl-2-p-tolyl-imidazo[1,2-a]pyridin-3-ylmethyl)-amide] | 99.7 | 84.9 | 93.98 | 90.2 | 25.0
Cc1ccc(C(=O)N(C)Cc2c(-c3ccc(C)cc3)nc3ccc(C)cn23)cc1 [Example 30, 4,N-Dimethyl-N-(6-methyl-2-p-tolyl-imidazo[1,2-a]pyridin-3-ylmethyl)-benzamide] | 90.5 | 4.6 | 44.36 | 33.9 | 0.0
Cc1ccc(-c2nc3ccc(C)cn3c2CN(C)C(=O)c2ccc([N+](=O)[O-])cc2)cc1 [Example 31, N-Methyl-N-(6-methyl-2-p-tolyl-imidazo[1,2-a]pyridin-3-ylmethyl)-4-nitro-benzamide] | 82.5 | 1.2 | 69.67 | 38.8 | 0.0
Cc1ccc(-c2nc3ccc(C)cn3c2CN(C)C(=O)c2ccc([N+](=O)[O-])o2)cc1 [Example 32, 5-Nitro-furan-2-carboxylic acid methyl-(6-methyl-2-p-tolyl-imidazo[1,2-a]pyridin-3-ylmethyl)-amide] | 98.0 | 14.5 | 92.66 | 77.5 | 0.0
Cc1ccc(-c2nc3ccc(C)cn3c2CN(C)C(=O)c2ncc(F)cc2F)cc1 [Example 33, 3,5-Difluoro-pyridine-2-carboxylic acid methyl-(6-methyl-2-p-tolyl-imidazo[1,2-a]pyridin-3-ylmethyl)-amide] | 98.4 | 37.3 | 35.02 | 74.0 | 0.0
Cc1ccc(-c2nc3ccc(C)cn3c2CN(C)C(=O)c2ccnc(Cl)c2)cc1 [Example 34, 2-Chloro-N-methyl-N-(6-methyl-2-p-tolyl-imidazo[1,2-a]pyridin-3-ylmethyl)-isonicotinamide] | 98.8 | 39.6 | 92.98 | 85.0 | 0.0
Cc1ccc(-c2nc3ccc(C)cn3c2CN(C)C(=O)c2ccc3ccccc3n2)cc1 [Example 35, Quinoline-2-carboxylic acid methyl-(6-methyl-2-p-tolyl-imidazo[1,2-a]pyridin-3-ylmethyl)-amide] | 67.1 | 31.8 | 33.19 | 3.7 | 0.0
C#CCN(Cc1c(-c2ccc(C)cc2)nc2ccc(C)cn12)C(=O)C1CC1 [Example 42, Cyclopropanecarboxylic acid (6-methyl-2-p-tolyl-imidazo[1,2-a]pyridin-3-ylmethyl)-prop-2-ynyl-amide] | 92.7 | 12.4 | 40.35 | 49.7 | 0.0
Cc1ccc(-c2nc3ccc(C)cn3c2CNC(=O)C2CCC2)cc1 [Example 58, Cyclobutanecarboxylic acid (6-methyl-2-p-tolyl-imidazo[1,2-a]pyridin-3-ylmethyl)-amide] | 98.8 | 6.5 | 94.25 | 78.6 | 9.2
Cc1ccc(-c2nc3ccc(C)cn3c2CNC(=O)c2cnc(C)cn2)cc1 [Example 61, 5-Methyl-pyrazine-2-carboxylic acid (6-methyl-2-p-tolyl-imidazo[1,2-a]pyridin-3-ylmethyl)-amide] | 100.0 | 85.4 | 90.55 | 98.5 | 48.3
